From ChEMBL document CHEMBL1201862, “PubChem BioAssay data set” (2004)
Active and inactive are the calls of the source.

What was measured:
Assay type in all cases: functional
[1] = target: T1, Apoptotic protease-activating factor 1 (Homo sapiens, UniProt O14727)
T1 sequence (O14727 whole entry): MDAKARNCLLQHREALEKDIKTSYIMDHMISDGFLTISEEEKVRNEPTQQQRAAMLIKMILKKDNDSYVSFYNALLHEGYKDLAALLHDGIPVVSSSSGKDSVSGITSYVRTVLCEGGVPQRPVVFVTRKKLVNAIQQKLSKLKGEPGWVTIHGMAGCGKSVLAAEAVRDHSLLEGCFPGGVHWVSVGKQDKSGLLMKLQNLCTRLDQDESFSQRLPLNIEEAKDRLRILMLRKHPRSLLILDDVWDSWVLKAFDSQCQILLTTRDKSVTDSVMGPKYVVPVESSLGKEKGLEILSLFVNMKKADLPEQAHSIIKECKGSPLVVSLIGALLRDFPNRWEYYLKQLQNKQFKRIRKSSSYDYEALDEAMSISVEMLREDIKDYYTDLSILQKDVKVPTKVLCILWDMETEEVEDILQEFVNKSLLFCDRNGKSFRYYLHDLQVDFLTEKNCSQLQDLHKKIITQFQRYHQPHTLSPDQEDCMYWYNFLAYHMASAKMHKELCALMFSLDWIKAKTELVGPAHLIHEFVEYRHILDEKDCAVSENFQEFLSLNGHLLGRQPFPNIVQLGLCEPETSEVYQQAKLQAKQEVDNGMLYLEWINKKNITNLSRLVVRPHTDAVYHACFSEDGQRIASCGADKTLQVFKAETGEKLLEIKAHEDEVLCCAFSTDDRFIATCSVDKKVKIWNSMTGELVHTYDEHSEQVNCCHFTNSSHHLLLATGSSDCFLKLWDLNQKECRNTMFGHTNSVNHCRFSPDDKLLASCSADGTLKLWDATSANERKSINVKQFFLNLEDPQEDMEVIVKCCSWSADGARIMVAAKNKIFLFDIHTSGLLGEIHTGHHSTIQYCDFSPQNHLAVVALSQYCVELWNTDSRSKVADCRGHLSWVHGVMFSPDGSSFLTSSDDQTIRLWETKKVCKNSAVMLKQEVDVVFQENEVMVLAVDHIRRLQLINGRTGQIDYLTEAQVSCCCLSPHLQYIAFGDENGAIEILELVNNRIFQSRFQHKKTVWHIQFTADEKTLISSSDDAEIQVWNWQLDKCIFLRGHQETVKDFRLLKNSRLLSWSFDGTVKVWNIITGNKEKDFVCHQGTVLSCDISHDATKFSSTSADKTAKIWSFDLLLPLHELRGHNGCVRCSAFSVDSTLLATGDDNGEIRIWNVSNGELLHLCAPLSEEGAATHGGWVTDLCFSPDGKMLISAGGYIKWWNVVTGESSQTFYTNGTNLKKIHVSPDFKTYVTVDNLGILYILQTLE

[2] = target: Platelet-derived growth factor receptor alpha (Homo sapiens, UniProt P16234); assay: Navigating the Kinome. Panel member name: PDGFRA
Platelet-derived growth factor receptor alpha, sequence (P16234 whole entry): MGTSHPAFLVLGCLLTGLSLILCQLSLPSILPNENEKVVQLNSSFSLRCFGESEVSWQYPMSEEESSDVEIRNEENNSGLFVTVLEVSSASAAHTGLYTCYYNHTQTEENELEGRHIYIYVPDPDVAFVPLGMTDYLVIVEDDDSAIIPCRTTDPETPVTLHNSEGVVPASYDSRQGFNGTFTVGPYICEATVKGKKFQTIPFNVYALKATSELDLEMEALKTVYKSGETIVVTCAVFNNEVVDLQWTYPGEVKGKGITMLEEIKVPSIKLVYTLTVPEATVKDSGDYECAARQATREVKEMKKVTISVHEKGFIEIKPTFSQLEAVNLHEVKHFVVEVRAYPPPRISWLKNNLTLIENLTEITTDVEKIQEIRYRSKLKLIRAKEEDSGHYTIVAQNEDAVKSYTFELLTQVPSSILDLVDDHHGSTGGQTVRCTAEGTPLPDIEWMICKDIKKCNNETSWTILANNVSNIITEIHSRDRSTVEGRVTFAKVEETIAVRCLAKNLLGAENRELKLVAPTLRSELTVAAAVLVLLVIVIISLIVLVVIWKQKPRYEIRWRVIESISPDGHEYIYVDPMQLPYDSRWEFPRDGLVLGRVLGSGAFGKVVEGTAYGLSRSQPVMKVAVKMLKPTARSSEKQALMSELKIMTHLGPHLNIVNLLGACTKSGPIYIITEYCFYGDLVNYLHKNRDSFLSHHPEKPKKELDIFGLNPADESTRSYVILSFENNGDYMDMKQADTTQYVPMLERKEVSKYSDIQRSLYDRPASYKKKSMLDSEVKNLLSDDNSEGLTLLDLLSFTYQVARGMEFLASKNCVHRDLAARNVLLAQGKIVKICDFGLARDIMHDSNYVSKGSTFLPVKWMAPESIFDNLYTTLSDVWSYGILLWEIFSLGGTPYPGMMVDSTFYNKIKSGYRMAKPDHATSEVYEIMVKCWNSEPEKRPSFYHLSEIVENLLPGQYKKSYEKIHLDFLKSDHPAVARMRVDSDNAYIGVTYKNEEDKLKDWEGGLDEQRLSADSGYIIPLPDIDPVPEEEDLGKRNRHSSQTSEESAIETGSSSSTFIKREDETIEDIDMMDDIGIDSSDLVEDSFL

Activin receptor type-1 = target: T2, Activin receptor type-1 (Homo sapiens, UniProt Q04771); assay: Navigating the Kinome. Panel member name: ACVR1
T2 sequence (Q04771 whole entry): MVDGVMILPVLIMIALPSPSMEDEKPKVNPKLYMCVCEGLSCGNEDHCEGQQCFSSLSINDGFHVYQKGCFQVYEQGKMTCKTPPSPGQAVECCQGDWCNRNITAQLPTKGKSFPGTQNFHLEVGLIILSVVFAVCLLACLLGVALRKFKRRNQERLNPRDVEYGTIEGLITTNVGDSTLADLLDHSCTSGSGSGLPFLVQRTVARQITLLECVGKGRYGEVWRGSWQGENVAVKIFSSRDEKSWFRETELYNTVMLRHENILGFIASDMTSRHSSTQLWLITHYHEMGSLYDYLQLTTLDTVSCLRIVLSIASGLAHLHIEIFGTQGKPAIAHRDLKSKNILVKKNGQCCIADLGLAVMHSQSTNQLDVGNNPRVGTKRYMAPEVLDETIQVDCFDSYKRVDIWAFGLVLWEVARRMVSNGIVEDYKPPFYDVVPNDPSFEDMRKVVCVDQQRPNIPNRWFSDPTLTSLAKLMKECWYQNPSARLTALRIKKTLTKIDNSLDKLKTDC

[3] = target: 5'-AMP-activated protein kinase catalytic subunit alpha-1 (Homo sapiens, UniProt Q13131)
[4] = target: Leukocyte tyrosine kinase receptor (Homo sapiens, UniProt P29376); assay: Navigating the Kinome. Panel member name: LTK
Leukocyte tyrosine kinase receptor, sequence (P29376 whole entry): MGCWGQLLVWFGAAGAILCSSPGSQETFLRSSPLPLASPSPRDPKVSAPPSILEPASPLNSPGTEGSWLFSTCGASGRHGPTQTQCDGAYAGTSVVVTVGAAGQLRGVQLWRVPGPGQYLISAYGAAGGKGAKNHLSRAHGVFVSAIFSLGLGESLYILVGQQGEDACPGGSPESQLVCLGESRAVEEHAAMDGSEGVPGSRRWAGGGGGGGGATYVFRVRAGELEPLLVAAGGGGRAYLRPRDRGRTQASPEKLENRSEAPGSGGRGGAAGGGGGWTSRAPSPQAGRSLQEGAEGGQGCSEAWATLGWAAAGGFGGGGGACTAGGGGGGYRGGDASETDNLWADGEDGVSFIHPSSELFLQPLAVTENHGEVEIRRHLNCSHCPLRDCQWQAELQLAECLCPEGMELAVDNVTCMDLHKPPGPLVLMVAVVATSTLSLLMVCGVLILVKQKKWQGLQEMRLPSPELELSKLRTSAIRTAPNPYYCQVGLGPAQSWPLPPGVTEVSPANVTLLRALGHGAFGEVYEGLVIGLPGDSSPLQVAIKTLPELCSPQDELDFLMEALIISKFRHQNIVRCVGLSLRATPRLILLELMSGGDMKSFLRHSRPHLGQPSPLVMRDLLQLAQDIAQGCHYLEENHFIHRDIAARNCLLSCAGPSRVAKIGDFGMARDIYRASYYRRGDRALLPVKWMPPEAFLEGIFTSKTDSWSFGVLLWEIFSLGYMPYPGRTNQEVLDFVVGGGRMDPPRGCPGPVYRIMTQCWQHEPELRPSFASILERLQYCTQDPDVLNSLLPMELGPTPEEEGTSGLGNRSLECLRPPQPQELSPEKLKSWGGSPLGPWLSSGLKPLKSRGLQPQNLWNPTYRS

[5] = target: Tyrosine-protein kinase JAK2 (Homo sapiens, UniProt O60674);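 also: JAK2 tested as one member of a kinase panel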
[6] = target: Glycogen synthase kinase-3 beta (Homo sapiens, UniProt P49841);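 also: value comes from a broad kinome profiling panel, with GSK3B as the panel member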
[7] = target: Dual specificity mitogen-activated protein kinase kinase 2 (Homo sapiens, UniProt P36507); assay: Navigating the Kinome. Panel member name: MAP2K2
[8] = target: Macrophage-stimulating protein receptor (Homo sapiens, UniProt Q04912); assay: Navigating the Kinome. Panel member name: MST1R
Macrophage-stimulating protein receptor, sequence (Q04912 25-304 limits assumed): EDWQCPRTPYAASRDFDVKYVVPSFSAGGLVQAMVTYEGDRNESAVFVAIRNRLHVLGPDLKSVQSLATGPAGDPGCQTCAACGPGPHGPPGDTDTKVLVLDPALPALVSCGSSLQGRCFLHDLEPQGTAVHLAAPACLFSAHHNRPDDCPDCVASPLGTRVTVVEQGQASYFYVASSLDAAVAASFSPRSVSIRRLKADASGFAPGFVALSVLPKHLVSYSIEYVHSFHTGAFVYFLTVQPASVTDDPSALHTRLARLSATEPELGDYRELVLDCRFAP
Macrophage-stimulating protein receptor, sequence (Q04912 310-1400 limits assumed): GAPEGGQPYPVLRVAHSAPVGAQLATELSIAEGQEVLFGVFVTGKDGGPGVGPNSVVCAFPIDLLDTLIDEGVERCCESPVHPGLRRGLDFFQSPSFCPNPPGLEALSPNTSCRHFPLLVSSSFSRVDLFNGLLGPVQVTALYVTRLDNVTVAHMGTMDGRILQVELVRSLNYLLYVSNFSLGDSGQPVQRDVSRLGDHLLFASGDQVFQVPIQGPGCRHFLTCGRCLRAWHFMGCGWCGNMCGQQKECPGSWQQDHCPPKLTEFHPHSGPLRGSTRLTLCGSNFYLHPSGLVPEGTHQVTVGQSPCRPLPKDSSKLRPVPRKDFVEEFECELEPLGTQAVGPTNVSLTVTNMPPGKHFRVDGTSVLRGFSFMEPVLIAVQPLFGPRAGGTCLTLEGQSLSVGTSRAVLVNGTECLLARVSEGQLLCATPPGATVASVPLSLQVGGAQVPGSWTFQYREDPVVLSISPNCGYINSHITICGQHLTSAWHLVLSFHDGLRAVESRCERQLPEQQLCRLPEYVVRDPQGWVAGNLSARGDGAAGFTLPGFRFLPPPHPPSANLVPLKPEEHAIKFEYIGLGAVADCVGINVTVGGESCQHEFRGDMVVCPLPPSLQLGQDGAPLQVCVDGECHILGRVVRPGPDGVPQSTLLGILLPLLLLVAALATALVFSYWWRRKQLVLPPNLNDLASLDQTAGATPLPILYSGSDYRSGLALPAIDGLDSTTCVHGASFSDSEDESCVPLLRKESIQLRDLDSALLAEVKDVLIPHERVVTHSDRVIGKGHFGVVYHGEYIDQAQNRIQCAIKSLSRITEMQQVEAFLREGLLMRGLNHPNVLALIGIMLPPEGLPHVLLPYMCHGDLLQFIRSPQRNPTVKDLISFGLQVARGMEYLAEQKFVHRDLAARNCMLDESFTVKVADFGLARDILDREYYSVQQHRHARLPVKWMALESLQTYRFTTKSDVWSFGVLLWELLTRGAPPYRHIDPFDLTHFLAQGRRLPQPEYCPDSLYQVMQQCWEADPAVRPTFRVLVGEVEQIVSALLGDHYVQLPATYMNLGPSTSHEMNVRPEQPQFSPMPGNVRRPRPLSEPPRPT

[9] = target: Tyrosine-protein kinase BTK (Homo sapiens, UniProt Q06187)
Tyrosine-protein kinase BTK, sequence (Q06187 whole entry): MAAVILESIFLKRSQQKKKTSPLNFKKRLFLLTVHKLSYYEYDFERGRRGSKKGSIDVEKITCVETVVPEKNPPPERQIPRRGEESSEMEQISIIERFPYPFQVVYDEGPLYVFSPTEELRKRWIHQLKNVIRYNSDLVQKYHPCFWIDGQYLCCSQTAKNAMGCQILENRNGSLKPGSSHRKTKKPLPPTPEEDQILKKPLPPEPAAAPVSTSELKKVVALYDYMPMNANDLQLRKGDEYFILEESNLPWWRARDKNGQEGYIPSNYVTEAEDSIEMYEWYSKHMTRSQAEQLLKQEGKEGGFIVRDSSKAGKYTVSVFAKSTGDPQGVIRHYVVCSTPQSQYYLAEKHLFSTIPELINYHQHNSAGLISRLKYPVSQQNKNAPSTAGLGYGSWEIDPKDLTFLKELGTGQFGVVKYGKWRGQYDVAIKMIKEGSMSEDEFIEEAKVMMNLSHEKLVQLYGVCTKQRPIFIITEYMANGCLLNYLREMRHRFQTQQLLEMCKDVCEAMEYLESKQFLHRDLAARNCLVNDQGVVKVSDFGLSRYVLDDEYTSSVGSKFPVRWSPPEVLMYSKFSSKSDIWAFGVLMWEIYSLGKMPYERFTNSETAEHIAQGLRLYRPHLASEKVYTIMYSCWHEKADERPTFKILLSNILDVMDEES

[10] = target: BDNF/NT-3 growth factors receptor (Homo sapiens, UniProt Q16620);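 also: NTRK2 measured as one member of a broad kinome-wide kinase profiling panel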
BDNF/NT-3 growth factors receptor, sequence (Q16620 whole entry): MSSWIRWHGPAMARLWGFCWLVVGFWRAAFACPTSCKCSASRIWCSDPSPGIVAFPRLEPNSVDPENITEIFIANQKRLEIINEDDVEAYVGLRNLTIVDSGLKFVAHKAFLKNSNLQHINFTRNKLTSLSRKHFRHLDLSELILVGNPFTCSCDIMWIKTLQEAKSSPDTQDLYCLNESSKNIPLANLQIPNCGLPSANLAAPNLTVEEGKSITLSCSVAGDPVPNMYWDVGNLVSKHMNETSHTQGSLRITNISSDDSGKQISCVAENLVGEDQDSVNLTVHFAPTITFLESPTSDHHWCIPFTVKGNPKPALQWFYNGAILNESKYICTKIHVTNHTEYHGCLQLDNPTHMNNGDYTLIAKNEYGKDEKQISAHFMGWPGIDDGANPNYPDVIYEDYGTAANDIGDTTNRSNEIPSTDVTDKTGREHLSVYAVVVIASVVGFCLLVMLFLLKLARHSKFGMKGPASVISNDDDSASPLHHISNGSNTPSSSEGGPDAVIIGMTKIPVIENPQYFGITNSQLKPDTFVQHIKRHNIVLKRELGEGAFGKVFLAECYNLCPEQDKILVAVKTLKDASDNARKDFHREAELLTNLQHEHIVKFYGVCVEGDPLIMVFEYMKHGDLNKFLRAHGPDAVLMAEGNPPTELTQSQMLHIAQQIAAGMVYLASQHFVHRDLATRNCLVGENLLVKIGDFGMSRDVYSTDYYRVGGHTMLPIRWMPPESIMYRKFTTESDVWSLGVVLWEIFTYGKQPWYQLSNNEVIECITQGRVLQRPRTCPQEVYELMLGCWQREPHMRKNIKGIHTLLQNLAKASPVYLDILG

Compound | IC50 [1] | Ki [2] | Ki (Activin receptor type-1) | Ki [3] | Ki [4] | Ki [5] | Ki [6] | Ki [7] | Ki [8] | Ki [9] | Ki [10]
O=C(Cc1ccccc1)NC1(O)C(=O)c2ccccc2C1=O | 11 µM (active) |  |  |  |  |  |  |  |  |  | 
O=c1[nH]c2cc(Br)cnc2[nH]1 |  | 5.01 µM (active) | 25.1 µM (active) | 25.1 µM (active) | 7.94 µM (active) | 79.4 µM (active) | 63.1 µM (active) | 50.1 µM (active) | 63.1 µM (active) |  | 
O=C(Nc1cccc(C(F)(F)F)n1)Nc1ccnc2cc(OC(F)F)ccc12 |  | > 2.51 µM (inactive) |  | > 3.16 µM (inactive) | > 2.51 µM (inactive) | > 2.51 µM (inactive) |  | > 3.98 µM (inactive) | > 3.98 µM (inactive) | > 6.31 µM (inactive) | > 3.98 µM (inactive)
O=C(Nc1cccc(C(F)(F)F)n1)Nc1ccnc2cc(Cl)ccc12 |  | > 2.51 µM (inactive) | 1 µM (active) | > 3.16 µM (inactive) | > 2.51 µM (inactive) | 2.51 µM (active) | 0.00794 µM (active) | > 3.98 µM (inactive) | > 3.98 µM (inactive) | > 6.31 µM (inactive) | > 3.98 µM (inactive)
CCC1CC(NS(=O)(=O)C2CC2)CC1c1ncc2cnc3[nH]ccc3n12 (centres undefined) |  | > 2.51 µM (inactive) | > 3.98 µM (inactive) | 2 µM (active) | 0.2 µM (active) | 0.000126 µM (active) | > 3.98 µM (inactive) | > 3.98 µM (inactive) | 2 µM (active) | > 6.31 µM (inactive) | > 3.98 µM (inactive)
Cc1cc(C)c(S(=O)(=O)/N=C2\C=C(Nc3ccc(C(=O)O)cc3)C(=O)c3ccccc32)c(C)c1 | 6.01 µM (active) |  |  |  |  |  |  |  |  |  | 
COC(=O)c1nc(-c2ccc3c(n2)C(=O)C(=N)C(OC)=C3O)c(N)c(-c2ccc(OC)c(OC)c2O)c1C | 3.39 µM (active) |  |  |  |  |  |  |  |  |  | 
